Results reported in patent publication US20050113283A1, “Methods of treating conditions associated with an EDG-4 receptor” (priority 2002, published 2005).

What was measured:
Edg-8 = target: T1, Edg-8 (Homo sapiens, UniProt Q9H228); test: Calcium mobilization assay (FLIPR), HTC cells expressing Edg 8; assay type: cell-based; conditions: agonist
T1 construct: expressed in transfected cells; host or cells: HTC rat hepatoma cells (from the earlier reading)

Edg-2 = target: T2, Edg-2 (Homo sapiens, UniProt Q92633); test: Calcium mobilization assay (FLIPR), HTC cells expressing Edg 2; assay type: cell-based; conditions: agonist
T2 construct: expressed in transfected cells; host or cells: HTC rat hepatoma cells (from the earlier reading)

human Edg-4 receptor [1] = target: T3, human Edg-4 receptor (Homo sapiens, UniProt Q9HBW0); test: Calcium mobilization assay (FLIPR), HTC rat hepatoma cells transfected with human Edg-4; assay type: cell-based
T3 construct: IC50 Edg-4; other: agonist, calcium mobilization; potency relative to compound 101; calcium response (agonist)
Description: (§1) LPA receptors such as Edg-4, couple to calcium effector pathways, and result in increases in intracellular calcium following receptor activation (An et al., Molecular Pharmacology, 54:881-888, 1998, incorporated herein by reference). This biological response lends itself to a very efficient, high-throughput screen using a Fluorescence Imaging Plate Reader (FLIPR; Molecular Devices, Sunnyvale, Calif.). The FLIPR system is a real-time, cell-based assay system with continuous fluorescence detection using a cooled CCD camera. The FLIPR system was used to developing an Edg-4 receptor screen. Rat hepatoma cells stably expressing Edg-4 receptor were plated on 384-well plates and loaded with a calcium dye loading kit (Molecular Devices, Sunnyvale, Calif.) for 1 hour at room temperature. Cells were then placed on the FLIPR^354 (Molecular Devices, Sunnyvale, Calif.) and excited by an argon laser at 488 nm. The data for the entire 384-well plate was updated every second. An integrated robotic pipettor allowed for simultaneous compound addition into each individual well in the plate.

human Edg-4 receptor [2] = test: as above; assay type: cell-based; conditions: agonists; Edg-4 relative to other Edg receptors
Description: as §1

Edg-1 = target: T4, Edg-1 (Homo sapiens, UniProt P21453); test: Calcium mobilization assay (FLIPR), HTC cells expressing Edg 1; assay type: cell-based; conditions: agonist
T4 construct: expressed in transfected cells; host or cells: HTC rat hepatoma cells (from the earlier reading)

Edg-7 = target: T5, Edg-7 (Homo sapiens, UniProt Q9UBY5); test: Calcium mobilization assay (FLIPR), HTC cells expressing Edg 7; assay type: cell-based
T5 construct: expressed in transfected cells; host or cells: HTC rat hepatoma cells (from the earlier reading)
T5 sequence (Q9UBY5 1-353): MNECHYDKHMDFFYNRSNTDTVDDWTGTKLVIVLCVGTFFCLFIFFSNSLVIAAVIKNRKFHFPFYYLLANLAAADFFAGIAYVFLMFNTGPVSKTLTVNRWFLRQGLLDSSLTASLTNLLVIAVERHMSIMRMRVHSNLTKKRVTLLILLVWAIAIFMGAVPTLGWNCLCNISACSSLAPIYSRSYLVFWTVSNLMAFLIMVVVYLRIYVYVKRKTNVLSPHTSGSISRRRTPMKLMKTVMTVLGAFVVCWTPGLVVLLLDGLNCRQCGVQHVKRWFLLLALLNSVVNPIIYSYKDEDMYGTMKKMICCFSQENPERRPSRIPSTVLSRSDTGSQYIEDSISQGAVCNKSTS

Edg-5 = target: T6, Edg-5 (Homo sapiens, UniProt O95136); test: Calcium mobilization assay (FLIPR), HTC cells expressing Edg 5; assay type: cell-based; conditions: agonist
T6 construct: expressed in transfected cells; host or cells: HTC rat hepatoma cells (from the earlier reading)

Edg-3 = target: T7, Edg-3 (Homo sapiens, UniProt Q99500); test: Calcium mobilization assay (FLIPR), HTC cells expressing Edg 3; assay type: cell-based; conditions: agonist
T7 construct: expressed in transfected cells; host or cells: HTC rat hepatoma cells (from the earlier reading)

[3] = system: CaOV3 human ovarian cancer cells; test: Calcium response in CaOV3 cells; assay type: cell-based; conditions: CaOV3, naturally express human Edg-4, FIG. 16
Edg-6 = target: T8, Edg-6 (Homo sapiens, UniProt O95977); test: Calcium mobilization assay (FLIPR), HTC cells expressing Edg 6; assay type: cell-based; conditions: agonist
T8 construct: expressed in transfected cells; host or cells: HTC rat hepatoma cells (from the earlier reading)
T8 sequence (O95977 1-384): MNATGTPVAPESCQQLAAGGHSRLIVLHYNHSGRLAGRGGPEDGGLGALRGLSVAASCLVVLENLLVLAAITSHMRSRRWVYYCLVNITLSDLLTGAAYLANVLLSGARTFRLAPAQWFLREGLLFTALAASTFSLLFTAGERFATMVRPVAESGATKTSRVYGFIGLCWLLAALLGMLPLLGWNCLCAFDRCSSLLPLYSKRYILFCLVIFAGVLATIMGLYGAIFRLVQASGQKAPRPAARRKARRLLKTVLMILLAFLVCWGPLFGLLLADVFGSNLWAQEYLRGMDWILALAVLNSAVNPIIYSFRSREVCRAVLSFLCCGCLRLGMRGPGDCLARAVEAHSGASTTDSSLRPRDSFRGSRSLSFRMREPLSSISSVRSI

[4] = Calcium mobilization assay, Null; assay type: cell-based; conditions: agonist
Description: as §1

[5] = system: human ovarian tumor growth within the chamber; test: In vivo Z-chamber study; set-up: species or system rat; conditions: rats, 5 mg/kg every other day, harvested day 16, FIG. 14
Experimental: The Z-chamber assay is a fibrin-based in vivo assay, wherein fibrin and thrombin are added through a port in a two-sided chamber sealed by a nylon mesh. The chamber is implanted in the subcutaneous space of an animal and harvested for evaluation. Fibrin matrices are formed in normal wound healing and are used by tumors to sustain growth, thus Z-chambers are designed to study, for example, angiogenesis, wound healing, and tumor growth. In addition, their design is useful, for example, in studies of localized gene expression, stem cell, adenoviral, and tissue generation.
The efficacy of 101 in an in vivo tumor model was examined by Z-chamber® (SRI, Menlo Park, Calif.) study. Each tumor chamber consisted of 150-160 μl cell suspension made by suspending 190 million cells in 20 ml fibrin (4 mg/ml). Following the introduction of cell suspension, 2 units of thrombin was added into each chamber and the mixture was allowed to gel for 5-7 minutes before implantation.
Rats were anesthetized with Nembutal (35 mg/kg). The skin of rats was surgically prepared with 70% alcohol. […]
101 was dissolved in a 1 to 1 cremophor:ethanol solution and diluted 4 times with 5% dextrose on water. […] The tumor thickness was measured and compared to a negative control, i.e., chambers with no treatment, and the positive treatment. […]

T3 sequence (Q9HBW0 1-340 limits assumed): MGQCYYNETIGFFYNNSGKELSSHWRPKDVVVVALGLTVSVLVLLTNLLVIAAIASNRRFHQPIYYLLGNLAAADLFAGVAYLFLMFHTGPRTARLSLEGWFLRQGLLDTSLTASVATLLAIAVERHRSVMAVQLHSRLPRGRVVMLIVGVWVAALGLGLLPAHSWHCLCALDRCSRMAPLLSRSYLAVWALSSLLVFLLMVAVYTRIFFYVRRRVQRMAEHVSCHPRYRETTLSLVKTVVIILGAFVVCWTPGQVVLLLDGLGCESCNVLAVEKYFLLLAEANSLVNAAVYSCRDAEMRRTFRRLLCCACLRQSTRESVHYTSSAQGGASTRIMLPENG
T6 sequence (O95136 whole entry): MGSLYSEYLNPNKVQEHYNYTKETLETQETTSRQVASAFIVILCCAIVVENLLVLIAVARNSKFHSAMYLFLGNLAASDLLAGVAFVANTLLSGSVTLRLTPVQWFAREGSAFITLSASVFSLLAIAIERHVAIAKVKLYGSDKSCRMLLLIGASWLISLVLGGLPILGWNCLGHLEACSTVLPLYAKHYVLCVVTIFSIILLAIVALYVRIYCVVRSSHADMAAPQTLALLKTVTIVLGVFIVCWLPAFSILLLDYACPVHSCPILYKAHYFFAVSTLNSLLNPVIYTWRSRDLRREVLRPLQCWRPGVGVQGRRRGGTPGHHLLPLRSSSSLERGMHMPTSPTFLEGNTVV
T4 sequence (P21453 whole entry): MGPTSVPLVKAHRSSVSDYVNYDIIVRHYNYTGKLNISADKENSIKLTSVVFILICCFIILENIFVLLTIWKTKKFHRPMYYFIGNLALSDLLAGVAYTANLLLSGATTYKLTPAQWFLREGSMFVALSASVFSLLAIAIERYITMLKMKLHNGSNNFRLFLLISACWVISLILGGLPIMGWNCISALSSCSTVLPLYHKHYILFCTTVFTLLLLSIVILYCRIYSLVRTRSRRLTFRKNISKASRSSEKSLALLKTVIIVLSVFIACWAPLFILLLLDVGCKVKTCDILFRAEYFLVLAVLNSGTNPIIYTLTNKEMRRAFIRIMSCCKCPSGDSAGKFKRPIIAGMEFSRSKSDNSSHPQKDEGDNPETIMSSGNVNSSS
T1 sequence (Q9H228 whole entry): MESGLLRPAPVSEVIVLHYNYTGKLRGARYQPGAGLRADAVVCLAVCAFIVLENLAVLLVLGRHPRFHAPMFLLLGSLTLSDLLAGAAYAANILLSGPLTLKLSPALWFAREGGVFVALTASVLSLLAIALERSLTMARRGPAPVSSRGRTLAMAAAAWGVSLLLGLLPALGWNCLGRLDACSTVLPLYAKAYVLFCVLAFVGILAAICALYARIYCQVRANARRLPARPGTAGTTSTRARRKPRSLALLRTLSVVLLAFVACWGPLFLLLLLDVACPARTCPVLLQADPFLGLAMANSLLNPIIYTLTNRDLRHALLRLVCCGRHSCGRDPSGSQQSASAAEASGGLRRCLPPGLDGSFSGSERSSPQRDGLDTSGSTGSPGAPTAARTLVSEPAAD
T2 sequence (Q92633 whole entry): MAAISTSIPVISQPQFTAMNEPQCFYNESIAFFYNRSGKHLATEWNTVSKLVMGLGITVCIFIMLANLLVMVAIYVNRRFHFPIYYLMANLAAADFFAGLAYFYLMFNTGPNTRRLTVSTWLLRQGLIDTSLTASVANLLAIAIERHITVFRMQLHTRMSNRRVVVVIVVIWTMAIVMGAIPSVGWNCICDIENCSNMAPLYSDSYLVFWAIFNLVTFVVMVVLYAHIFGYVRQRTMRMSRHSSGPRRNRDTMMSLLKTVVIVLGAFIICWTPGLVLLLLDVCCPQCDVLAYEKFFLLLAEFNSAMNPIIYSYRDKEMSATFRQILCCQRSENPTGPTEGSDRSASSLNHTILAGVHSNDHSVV
T7 sequence (Q99500 whole entry): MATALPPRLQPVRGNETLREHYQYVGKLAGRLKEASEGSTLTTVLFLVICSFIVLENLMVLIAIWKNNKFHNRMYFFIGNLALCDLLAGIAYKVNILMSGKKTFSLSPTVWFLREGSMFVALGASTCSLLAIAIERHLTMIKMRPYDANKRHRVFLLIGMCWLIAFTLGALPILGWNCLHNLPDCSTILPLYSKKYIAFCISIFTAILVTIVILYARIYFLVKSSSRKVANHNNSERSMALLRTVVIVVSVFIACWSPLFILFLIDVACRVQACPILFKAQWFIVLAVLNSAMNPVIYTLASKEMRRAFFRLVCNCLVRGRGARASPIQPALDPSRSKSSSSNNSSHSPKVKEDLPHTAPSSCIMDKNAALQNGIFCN

| SMILES | EC50 (Edg-8) | EC50 (Edg-2) | calcium response (agonist) (human Edg-4 receptor [1]; HTC cells transfected with human Edg-4, FIG. 15) | EC50 (human Edg-4 receptor [1]; agonist, calcium mobilization) | Fold Selectivity for Edg-4 (EC50) (human Edg-4 receptor [2]) | EC50 (Edg-1) | agonist activity at the Edg-7 receptor (Edg-7) | EC50 (Edg-7; agonist, calcium mobilization) | EC50 (Edg-5) | EC50 (Edg-3) | calcium response elicited by 125, inhibited by antagonist 103 [3] | EC50 (Edg-6) | EC50 [4] | inhibition of tumor growth (positive control) [5] |
| --- | --- | --- | --- | --- | --- | --- | --- | --- | --- | --- | --- | --- | --- | --- |
| COc1cc2c(cc1OC)C(c1c(Cl)cccc1Cl)NC(=O)C2 (centres unmarked) [Compound 125, 1-(2,6-dichlorophenyl)-6,7-dimethoxy-1,4-dihydro-2H-isoguinolin-3-one] | > 25 µM | > 25 µM | elicits a calcium response | 5.2 µM | >4.8 | > 25 µM | acts as an agonist | 2.5 µM | > 25 µM | > 25 µM | specificity is also observed | > 25 µM | > 25 µM |  |
| CC(=O)O[C@H]1C(=O)[C@@]2(C)[C@H]([C@H](OC(=O)c3ccccc3)[C@]3(O)C[C@H](OC(=O)[C@H](O)[C@@H](NC(=O)c4ccccc4)c4ccccc4)C(C)=C1C3(C)C)[C@]1(OC(C)=O)CO[C@@H]1C[C@@H]2O [Taxol] |  |  |  |  |  |  |  |  |  |  |  |  |  | inhibition of tumor growth |
